One data set has as its system Lymphome. As to the kind of experiment: Effect on lymphomas.
Another data set deals with Hepatitis-Viren. Nature of the data set: Antiviral effect. The note with it: in particular as vesicles holding antisense constructs.
The test system of the next data set is Normale Zellen. As to the kind of experiment: Mean IC50 over all normal cell lines. Type of data set: cell-based. The note with it: read-out: IC50 Normale Zellen (Durchschnitt ± SD). On the procedure: (§1) Die Silane 1, 5, 9, 10, 11, 13, 15, 16 wurden in Ethanol gelöst und in MTT Assays in einer anfänglichen Konzentration von 200 µg/ml (5 Lösungsschritte 200 - 12.5 µg/ml) verwendet. Die Platten wurde für eine Dauer.von 4 Tagen inkubiert und die Entwicklungsfähigkeit mithilfe des EZ4U Test bestimmt. Die IC50 Werte wurden ausgehend von Dosierungs-Reaktions-Linien berechnet Zelllinien: Colo 205 and HT29 - Kolonkarzinom; BxPC3 and MIAPaCa2 - Pankreaskrebs; CRO2B - karzinoid, A431 Epidermalkarzinom; normale Zellen: WI38 - humane embryonale Fibroblasten; NIH3T3 - mausartige Fibroblasten; IEC6 - mausartige Enterozyten.
(§2) Mittelwerte-IC50 für alle Krebs- oder normalen Zelllinien: […]

The test system of another data set is MIAPaCa2 - Pankreaskrebs. Nature of the data set: MTT assay / EZ4U test, 4 days. As to conditions: Homo sapiens. Type of data set: cell-based. On the procedure: as §1
Data set [1] deals with IEC6 - mausartige Enterozyten. Nature of the data set: MTT assay / EZ4U test, 4 days. It counts as cell-based. As to conditions: Rattus norvegicus. As for the experimental part: as §1
In the next data set the test system is HT29 - Kolonkarzinom. Nature of the data set: MTT assay / EZ4U test, 4 days. It counts as cell-based. The note with it: Homo sapiens. As for the experimental part:
as §1

A further data set has as its system CRO2B - karzinoid. As to the kind of experiment: MTT assay / EZ4U test, 4 days. Type of data set: cell-based. The note with it: read-out: IC50 CR02B. On the procedure:
as §1

The test system of a further data set is A431 Epidermalkarzinom. Nature of the data set: MTT assay / EZ4U test, 4 days. It counts as cell-based. As to conditions: Homo sapiens. On the procedure: as §1
The test system of data set [2] is NIH3T3 - mausartige Fibroblasten. Nature of the data set: MTT assay / EZ4U test, 4 days. Type of data set: cell-based. As to conditions: Mus musculus. As for the experimental part:
as §1

Data set [3] concerns WI38 - humane embryonale Fibroblasten. As to the kind of experiment: MTT assay / EZ4U test, 4 days. Type of data set: cell-based. The note with it: Homo sapiens. As for the experimental part: as §1
For another data set, the system named is BxPC3 - Pankreaskrebs. Nature of the data set: MTT assay / EZ4U test, 4 days. The note with it: Homo sapiens. It counts as cell-based. On the procedure:
as §1

In the next data set the test system is Colo 205 - Kolonkarzinom. Nature of the data set: MTT assay / EZ4U test, 4 days. As to conditions: Homo sapiens. Type of data set: cell-based. As for the experimental part:
as §1

A further data set relates to Rhino-Viren. Nature of the data set: Antiviral effect. The note with it: in particular as vesicles holding antisense constructs.
The subject of data set [4] is Panc1 Pankreaskrebszellen. As to the kind of experiment: subG1 apoptotic fraction, propidium iodide, flow cytometry. Type of data set: cell-based. The note with it: 50 µg/ml, 4 Tage. On the procedure: (§3) Die Zellen (IEC6 mausartige Enterozyten; Panc1 Pankreaskrebszellen; Colo205 Kolonkarzinom) wurden mit 50 µg/ml Silanen inkubiert und nach 4-tägiger Aussetzung auf DNA eingefärbt (Propidiumiodid). Die SubG1 Zellteilung wurde mittels Durchflusscytometrie bestimmt.

Data set [5] relates to IEC6 mausartige Enterozyten. Described as above. Type of data set: cell-based. The note with it: 50 µg/ml, 4 Tage. As for the experimental part: as §3
The next data set relates to Colo205 Kolonkarzinom. The data set is described as above. It counts as cell-based. As to conditions: 50 µg/ml, 4 Tage. As for the experimental part: as §3
In another data set the test system is T47D (Brustkrebs). Nature of the data set: MTT test, triplicate, two-fold dilutions. It counts as cell-based. The note with it: Homo sapiens, T47D, read-out: IC50 T47D. On the procedure:
(§4) Die Silan wurden in Ethanol aufgelöst und in Zellkulturmedien in Konzentrationen von bis zu 500 µg/ml resuspendiert. Es wurden MTT Tests in dreifacher Ausführung durchgeführt, für welche doppelte Lösungen (7 Schritte) und colo205 (Kofon-Karzinom), BxPC3 (pankreatisches Adenokarzinom) sowie T47D (Brustkrebs) benutzt wurden.

The test system of another data set is colo205 (Kofon-Karzinom). As to the kind of experiment: MTT test, triplicate, two-fold dilutions. Type of data set: cell-based. As to conditions: Homo sapiens. On the procedure: as §4
Data set [6] concerns BxPC3 (pankreatisches Adenokarzinom). As to the kind of experiment: MTT test, triplicate, two-fold dilutions. It counts as cell-based. As to conditions: Homo sapiens. On the procedure: as §4
The next data set deals with Krebszellen. Nature of the data set: Mean IC50 over all cancer cell lines. The note with it: read-out: IC50 Krebszellen (Durchschnitt ± SD). Type of data set: cell-based. On the procedure: as §1, §2
Another data set has as its system Osteosarkome. As to the kind of experiment: Effect on osteosarcomas.
A further data set concerns Basalzellkarzinome. Nature of the data set: Effect on basal cell carcinomas.
The next data set has as its system Maus. Nature of the data set: Pharmacological observation in the mouse (central, vegetative and toxic effects, acute toxicity). Type of data set: in vivo. An excerpt:
Pharmakologische Untersuchungen an der Maus
Die Verbindungen wurden an der Maus auf zentrale, vegetative und toxische Effekte geprüft. Durch systemische Einzelbeobachtungen sind neben der akuten Toxizität (orienberende letale Dosis, oLD) zentrale und vegetative Wirkungen der Testsubstanzen, insbesondere Effekte auf die Motorik und das Reaktionsvermögen, die Haut- und Rektaltemperatur sowie auf die Pupillenmotorik erfasst worden. Die getesteten Dosierungen betrugen 5 •10^-4, 1 • 10^-3 und 5 • 10^-3 mol/kg Körpergewicht Letale Wirkungen konnten bei keiner der Verbindungen beobachtet werden. Die oLD lag für Di(tetradecanoyloxy)dimethylsilan und Di(octadecanoyloxy)dimethylsilan unter 1 • 10^-3 mol/kg Körpergewicht für alle übrigen Verbindungen unter 5 • 10^-3 mollkg Körpergewicht.

In data set [7] the test system is Kälber-Aortenendothelzellinie BKEz-7. Nature of the data set: tissue or blood. It counts as cell-based. An excerpt:
Prüfung auf zytotoxisches Potential an Kälber-Aortenendothelzellinie BKEz-7
Als Marker für eine zytotoxische Wirkung wird bei Zellen der charakterisierten Kälber-Aortenendothelzellinie BKEz-7 die Hemmkonzentration ermittelt, bei der eine 50%-ige Hemmung der Zellproliferation erfolgt (im Vergleich zu Kontrollkulturen ohne Zusatz eines Zellinhibitors). Die resultierende Reduzierung der Zellzahl um 50% wird als IC 50 ausgedrückt. Die getesteten Silanverbindungen wurden als Suspensionen auf die Kulturen gegeben und 48 Stunden bei 37°C inkubiert. Zusätzlich erfolgten morphologische Kontrollen und Vitalitätsbestimmungen mittels dem Neutralrot-Test. Mit Ausnahme des Di(dodecanoyloxy)dimethylsilans standen alle Ergebnisse der morphologischen Untersuchungen in guter Übereinstimmung. […]

[8] abbreviates: COLO 205, read-out: IC50 Colo205.

pIC50: −log10 of the molar value. Values after ≈ are worked out from the molar mass of the structure shown. Read-outs that look alike come from different tables or passages of the source. Numbered stars: 1 amine (or outer) side, 2 acyl side, 3 side chain; on linkers, the order of the positions; unused ones are H or OH. Bridge positions count the residues as written; N and C are the ends. Peptide text beside a SMILES is read from it. I, II: the chains in the order shown. X2 = c1ccc([Si](O[*:1])(O[*:2])c2ccccc2)cc1

On to `C[C@H](N)C(=O)N[C@@H](C)C(=O)N[C@@H](C)C(=O)N[C@@H](C)C(=O)N[C@@H](C)C(=O)N[C@@H](C)C(=O)N[C@@H](C)C(=O)O[Si](OC(=O)[C@H](C)NC(=O)[C@H](C)NC(=O)[C@H](C)NC(=O)[C@H](C)NC(=O)[C@H](C)NC(=O)[C@H](C)NC(=O)[C@H](C)N)(c1ccccc1)c1ccccc1` [Diphenyl bis(heptaalanyl)silylester] (I: H-AAAAAAA / II: H-AAAAAAA; linker I:C-II:C via X2), for which the “Wirkung auf Lymphome” value in the data set on Lymphome is “zeigen eine Wirkung”. Moreover, the “Wirkung gegen Hepatitis-Viren” value in the data set with Hepatitis-Viren was “zeigen eine Wirkung”.

Turning to `CCCCCCCCCCCCCCC(=O)O[Si](OC(=O)CCCCCCCCCCCCCC)(c1ccccc1)c1ccccc1` [Si5, Di (pentadecanoyloxy) diphenylsilan], the IC50 in the data set with Normale Zellen came to 41.3 µg/mL (≈ 62.1 µM); in the data set on MIAPaCa2 - Pankreaskrebs (MIA PaCa-2, read-out: IC50 MlAPaCa2), 38.5 µg/mL (≈ 57.9 µM); in data set [1] (IEC-6, read-out: IC50 IEC6), 32.5 µg/mL (≈ 48.9 µM); in the data set on HT29 - Kolonkarzinom (HT-29, read-out: IC50 HT29), 40 µg/mL (≈ 60.1 µM); in the data set with CRO2B - karzinoid, 35 µg/mL (≈ 52.6 µM); in the data set on A431 Epidermalkarzinom (A-431, read-out: IC50 A431) it was 36.3 µg/mL (≈ 54.6 µM). In addition, the IC50 in [2] (NIH3T3, read-out: IC50 NIH3T3) is 55 µg/mL (≈ 82.7 µM); in [3] (WI-38, read-out: IC50 WI38), 36.5 µg/mL (≈ 54.9 µM); in the data set on BxPC3 - Pankreaskrebs (BXPC-3, read-out: IC50 BxPC3), 25 µg/mL (≈ 37.6 µM); with Colo 205 - Kolonkarzinom (setting [8]), 43.8 µg/mL (≈ 65.9 µM); in the data set with T47D (Brustkrebs) it was 20 µg/mL (≈ 30.1 µM); in the data set with colo205 (Kofon-Karzinom) (setting [8]), 70 µg/mL (≈ 105 µM). Moreover, the 50% inhibitory concentration (IC50) came out at 60 µg/mL (≈ 90.2 µM) in data set [6] (BXPC-3, read-out: IC50 BxPC3) and 34 µg/mL (≈ 51.1 µM) with Krebszellen. In the data set with Rhino-Viren, the “Wirkung gegen Rhino-Viren” value is reported as “zeigen eine Wirkung”. Also, the “subG1 apoptotische Zellteilung Panc1” value in [4] is 52,8 ± 3,4. The “subG1 apoptotische Zellteilung IEC6” value in data set [5] is 6,35 ± 0,63. Moreover, in the data set with Colo205 Kolonkarzinom, the “subG1 apoptotische Zellteilung Colo205” value is 3,4 ± 0,28. Also, the “Wirkung auf Osteosarkome” value in the data set with Osteosarkome is given as “zeigen eine Wirkung”.

Diphenyl bis(hexaalanyl)silylester: the “Wirkung auf Lymphome” value in the data set with Lymphome is reported as “zeigen eine Wirkung”. In addition, in the data set on Hepatitis-Viren, the “Wirkung gegen Hepatitis-Viren” value is “zeigen eine Wirkung”.

Consider `CCCCCCCCCCCCCC(=O)O[Si](OC(=O)CCCCCCCCCCCCC)(c1ccccc1)c1ccccc1` [Si15, Di (tetradecanoyloxy) diphenylsilan], for which the IC50 in the data set with Normale Zellen (mean over normal cell lines) turned out to be 27.8 µg/mL (≈ 43.6 µM); in the data set with MIAPaCa2 - Pankreaskrebs (MIA PaCa-2, 200 - 12.5 µg/ml, 4 Tage, read-out: IC50 MlAPaCa2) it was 37 µg/mL (≈ 58.1 µM); in data set [1] (IEC-6, 200 - 12.5 µg/ml, 4 Tage, read-out: IC50 IEC6), 19.1 µg/mL (≈ 30 µM); in the data set on HT29 - Kolonkarzinom (HT-29, 200 - 12.5 µg/ml, 4 Tage, read-out: IC50 HT29) it was 39.4 µg/mL (≈ 61.8 µM); in the data set on CRO2B - karzinoid (200 - 12.5 µg/ml, 4 Tage), 12.5 µg/mL (≈ 19.6 µM); with A431 Epidermalkarzinom (A-431, 200 - 12.5 µg/ml, 4 Tage, read-out: IC50 A431) it was 34.5 µg/mL (≈ 54.2 µM). Besides, the IC50 stood at 29.4 µg/mL (≈ 46.2 µM) in data set [2] (NIH3T3, 200 - 12.5 µg/ml, 4 Tage, read-out: IC50 NIH3T3); 35 µg/mL (≈ 54.9 µM) in data set [3] (WI-38, 200 - 12.5 µg/ml, 4 Tage, read-out: IC50 WI38); 33.8 µg/mL (≈ 53.1 µM) in the data set on BxPC3 - Pankreaskrebs (BXPC-3, 200 - 12.5 µg/ml, 4 Tage, read-out: IC50 BxPC3); 30 µg/mL (≈ 47.1 µM) with Colo 205 - Kolonkarzinom (COLO 205, 200 - 12.5 µg/ml, 4 Tage, read-out: IC50 Colo205); 15 µg/mL (≈ 23.5 µM) in the data set on T47D (Brustkrebs) (up to 500 µg/ml); 62 µg/mL (≈ 97.3 µM) with colo205 (Kofon-Karzinom) (COLO 205, up to 500 µg/ml, read-out: IC50 Colo205). For the same compound, the IC50 in data set [6] (BXPC-3, up to 500 µg/ml, read-out: IC50 BxPC3) came out at 15 µg/mL (≈ 23.5 µM); in the data set on Krebszellen (mean over cancer cell lines), 30 µg/mL (≈ 47.1 µM). Also, the “Wirkung auf Basalzellkarzinome” value in the data set on Basalzellkarzinome was “zeigen eine Wirkung”. For the same compound, the “zentrale, vegetative und toxische Effekte (Verhaltensänderungen)” value is “Ataxie, Hyper-aktivität” in the data set with Maus (1•10^-3 mol/kg); “schwache Ataxie, Piloerektion” in the data set with Maus (5•10^-3 mol/kg); “keine Verhaltensänderungen” in the data set with Maus (5•10^-4 mol/kg). Further, in data set [7], the “Bedenkliche Toxizität” value is “-”. In data set [7] (suspensions, 48 Stunden bei 37°C), this compound had a pIC50 of 4.34. Also, in [4], the “subG1 apoptotische Zellteilung Panc1” value was 48,6 ± 0,6. Also, the “subG1 apoptotische Zellteilung IEC6” value in [5] is given as 2,9 ± 0,42. In addition, the “subG1 apoptotische Zellteilung Colo205” value in the data set on Colo205 Kolonkarzinom is given as 37,6 ± 0,21.

These data come from patent publication EP1948196B1, “USE OF TETRAORGANOSILICON COMPOUNDS” (Salama, Zoser B., priority 2005, dated 2007).
